According to patent US7253187B2, “Heterocyclic inhibitors of ERK2 and uses thereof” (Vertex Pharmaceuticals Incorporated, priority 2001, dated 2007):
Read-outs that look alike come from different tables or passages of the source.

Experiments:
Type in all cases: biochemical
GSK-3β (AA 1–420) = target: T1, GSK-3β (AA 1–420) (Homo sapiens, UniProt P49841); test: GSK-3 inhibition assay (coupled enzyme system); conditions: read-out: GSK3 Inhibitory Activity (Ki class)
T1 construct: GSK-3β (AA 1–420)
Method: Final substrate concentrations in the assay were 20 μM ATP (Sigma Chemicals, St Louis, Mo.) and 300 μM peptide (HSSPHQS(PO3H2)EDEEE, American Peptide, Sunnyvale, Calif.). Reactions were carried out at 30° C. and 20 nM GSK-3β. Final concentrations of the components of the coupled enzyme system were 2.5 mM phosphoenolpyruvate, 300 μM NADH, 30 μg/ml pyruvate kinase and 10 μg/ml lactate dehydrogenase.
An assay stock buffer solution was prepared containing all of the reagents listed above with the exception of ATP and the test compound of interest. The assay stock buffer'solution (175 μl) was incubated in a 96 well plate with 5 μl of the test compound of interest at final concentrations spanning 0.002 μM to 30 μM at 30° C. for 10 min. […] The reaction was initiated by the addition of 20 μl of ATP (final concentration 20 μM). Rates of reaction were obtained using a Molecular Devices Spectramax plate reader (Sunnyvale, Calif.) over 10 min at 30° C. The Ki values were determined from the rate data as a function of inhibitor concentration.
The compound numbers correspond to the compound numbers in Table 1.

CDK-2/Cyclin A = CDK-2/Cyclin A (Homo sapiens, UniProt P24941); test: CDK-2 inhibition assay (coupled enzyme assay)
Method: To an assay stock buffer solution containing 0.1M HEPES 7.5, 10 mM MgCl2, 1 mM DTT, 25 mM NaCl, 2.5 mM phosphoenolpyruvate, […], […], […], […], and 100 μM peptide ([…], American Peptide, Sunnyvale, Calif.) was added a DMSO solution of a compound of the present invention to a final concentration of 30 μM.
The Ki values were determined from the rate data as a function of inhibitor concentration.

ERK2 = ERK2 (Homo sapiens, UniProt P28482); test: ERK2 inhibition assay (spectrophotometric coupled-enzyme assay)
Method: The IC50 was evaluated from the rate data as a function of inhibitor concentration. […] The compound numbers correspond to the compound numbers in Table 1.

Aurora-2 = target: T2, Aurora-2 (Homo sapiens, UniProt O14965); test: Aurora-2 inhibition assay (coupled enzyme assay)
T2 sequence (O14965 1-403): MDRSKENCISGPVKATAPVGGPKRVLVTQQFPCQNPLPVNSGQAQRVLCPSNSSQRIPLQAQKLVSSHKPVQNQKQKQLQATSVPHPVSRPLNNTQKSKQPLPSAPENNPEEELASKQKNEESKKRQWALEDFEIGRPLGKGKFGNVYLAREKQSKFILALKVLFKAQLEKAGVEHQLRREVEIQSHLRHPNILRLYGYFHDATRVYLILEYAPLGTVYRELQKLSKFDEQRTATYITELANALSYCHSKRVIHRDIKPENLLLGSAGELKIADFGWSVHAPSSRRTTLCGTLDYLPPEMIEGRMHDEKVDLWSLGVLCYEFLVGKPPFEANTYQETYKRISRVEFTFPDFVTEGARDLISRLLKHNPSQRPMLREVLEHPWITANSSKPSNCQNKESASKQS
Method: Compounds were screened in the following manner for their ability to inhibit Aurora-2 using a standard coupled enzyme assay (Fox et al (1998) Protein Sci 7, 2249).
To an assay stock buffer solution containing 0.1M HEPES 7.5, 10 mM MgCl2, 1 mM DTT, 25 mM NaCl, 2.5 mM phosphoenolpyruvate, […], 30 mg/ml pyruvate kinase, 10 mg/ml lactate dehydrogenase, […], and 800 μM peptide (LRRASLG, American Peptide, Sunnyvale, Calif.) was added a DMSO solution of a compound of the present invention to a final concentration of 30 μM. The resulting mixture was incubated at 30° C. for 10 min. The reaction was initiated by the addition of 10 μL of Aurora-2 stock solution to give a final concentration of 70 nM in the assay. The rates of reaction were obtained by monitoring absorbance at 340 nm over a 5 minute read time at 30° C. using a BioRad Ultramark plate reader (Hercules, Calif.). The Ki values were determined from the rate data as a function of inhibitor concentration.

[1] = read-out: ERK2 Inhibitory Activity (Ki class D-F)

T1 sequence (P49841 whole entry, species assumed, the tested form may be a part): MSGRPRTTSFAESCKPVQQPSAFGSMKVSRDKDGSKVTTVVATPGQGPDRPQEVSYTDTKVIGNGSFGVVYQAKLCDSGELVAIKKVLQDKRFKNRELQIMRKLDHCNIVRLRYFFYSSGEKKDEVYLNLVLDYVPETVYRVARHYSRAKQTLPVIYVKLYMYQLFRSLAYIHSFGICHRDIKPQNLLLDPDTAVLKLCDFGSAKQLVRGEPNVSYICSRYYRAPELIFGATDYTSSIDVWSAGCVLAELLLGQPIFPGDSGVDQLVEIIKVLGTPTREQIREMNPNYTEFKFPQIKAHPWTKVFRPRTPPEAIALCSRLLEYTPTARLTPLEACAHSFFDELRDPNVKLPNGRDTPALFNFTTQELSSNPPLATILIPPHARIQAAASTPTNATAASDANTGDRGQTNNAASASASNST
ERK2, sequence (P28482 whole entry): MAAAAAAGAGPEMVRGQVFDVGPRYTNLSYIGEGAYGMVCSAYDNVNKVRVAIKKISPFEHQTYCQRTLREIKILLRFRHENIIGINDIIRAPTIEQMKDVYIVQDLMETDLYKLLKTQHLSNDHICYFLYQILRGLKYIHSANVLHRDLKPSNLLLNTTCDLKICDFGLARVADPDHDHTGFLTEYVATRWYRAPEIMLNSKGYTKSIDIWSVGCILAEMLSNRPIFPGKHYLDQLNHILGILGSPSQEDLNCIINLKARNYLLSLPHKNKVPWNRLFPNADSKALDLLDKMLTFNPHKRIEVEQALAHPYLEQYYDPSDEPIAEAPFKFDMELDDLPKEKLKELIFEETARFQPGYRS

Row | Ki (GSK-3β (AA 1–420)) | Ki (CDK-2/Cyclin A) | Ki (ERK2; [1]) | found to inhibit Aurora-2 (Aurora-2) | SMILES | Ki (ERK2; ERK2 Inhibitory Activity (Ki class D-F))
1 | < 0.1 µM | 0.1 to 1 µM | < 0.1 µM | – | Cc1cnc(NC2CC2)nc1-c1c[nH]c(C(=O)N[C@H](CO)c2ccccc2)c1 [III-a-162, 4-(2-Cyclopropylamino-5-methyl-pyrimidin-4-yl)-1H-pyrrole-2-carboxylic acid (2-hydroxy-1-(S)-phenyl-ethyl)-amide] | –
2 | < 0.1 µM | – | < 0.1 µM | found to inhibit Aurora-2 | Cc1cnc(Nc2cccc(OCc3ccccc3)c2)nc1-c1c[nH]c(C(=O)NC(CO)c2ccccc2)c1 (stereo not shown) [III-a-141, 4-[2-(3-Benzyloxy-phenylamino)-5-methyl-pyrimidin-4-yl]-1H-pyrrole-2-carboxylic acid (2-hydroxy-1-phenyl-ethyl)-amide] | –
3 | < 0.1 µM | < 0.1 µM | < 0.1 µM | – | Cc1cnc(Nc2cccc(C(F)(F)F)c2)nc1-c1c[nH]c(C(=O)NC(CO)c2ccccc2)c1 (stereo not shown) [III-a-149, 4-[5-Methyl-2-(3-trifluoromethyl-phenylamino)-pyrimidin-4-yl]-1H-pyrrole-2-carboxylic acid (2-hydroxy-1-phenyl-ethyl)-amide] | –
4 | < 0.1 µM | 0.1 to 1 µM | < 0.1 µM | – | Cc1cnc(Nc2cccc(F)c2)nc1-c1c[nH]c(C(=O)NC(CO)c2cccc(C(F)(F)F)c2)c1 (stereo not shown) [III-a-148, 4-[2-(3-Fluoro-phenylamino)-5-methyl-pyrimidin-4-yl]-1H-pyrrole-2-carboxylic acid [2-hydroxy-1-(3-trifluoromethyl-phenyl)-ethyl]-amide] | –
5 | 0.1 to 1 µM | 0.1 to 1 µM | – | – | Cc1cnc(Nc2ccccc2)nc1-c1c[nH]c(C(=O)NC(CO)c2cccc(C(F)(F)F)c2)c1 (stereo not shown) [III-a-146, 4-(5-Methyl-2-phenylamino-pyrimidin-4-yl)-1H-pyrrole-2-carboxylic acid [2-hydroxy-1-(3-trifluoromethyl-phenyl)-ethyl]-amide] | –
6 | < 0.1 µM | < 0.1 µM | < 0.1 µM | – | Cc1cnc(NC2CCC(O)CC2)nc1-c1c[nH]c(C(=O)NC(CO)c2ccccc2)c1 (stereo not shown) [III-a-142, 4-[2-(4-Hydroxy-cyclohexylamino)-5-methyl-pyrimidin-4-yl]-1H-pyrrole-2-carboxylic acid (2-hydroxy-1-phenyl-ethyl)-amide] | –
7 | – | – | – | found to inhibit Aurora-2 | Cc1cnc(Nc2ccccc2)nc1-c1c[nH]c(C(=O)NC(CO)c2ccccc2)c1 (stereo not shown) [III-a-116, 4-(5-Methyl-2-phenylamino-pyrimidin-4-yl)-1H-pyrrole-2-carboxylic acid (2-hydroxy-1-phenyl-ethyl)-amide] | –
8 | < 0.1 µM | < 0.1 µM | < 0.1 µM | – | Cc1cnc(Nc2ccc(OCc3ccccc3)cc2)nc1-c1c[nH]c(C(=O)NC(CO)c2ccccc2)c1 (stereo not shown) [III-a-152, 4-[2-(4-Benzyloxy-phenylamino)-5-methyl-pyrimidin-4-yl]-1H-pyrrole-2-carboxylic acid (2-hydroxy-1-phenyl-ethyl)-amide] | –
9 | < 0.1 µM | – | – | found to inhibit Aurora-2 | Cc1cnc(Nc2cccc(O)c2)nc1-c1c[nH]c(C(=O)NC(CO)c2ccccc2)c1 (stereo not shown) [III-a-138, 4-[2-(3-Hydroxy-phenylamino)-5-methyl-pyrimidin-4-yl]-1H-pyrrole-2-carboxylic acid (2-hydroxy-1-phenyl-ethyl)-amide] | –
10 | 0.1 to 1 µM | 1 to 20 µM | – | – | COc1ccccc1Nc1ncc(C)c(-c2c[nH]c(C(=O)NC(CO)c3ccccc3)c2)n1 (stereo not shown) [III-a-156, 4-[2-(2-Methoxy-phenylamino)-5-methyl-pyrimidin-4-yl]-1H-pyrrole-2-carboxylic acid (2-hydroxy-1-phenyl-ethyl)-amide] | –
11 | < 0.1 µM | 1 to 20 µM | < 0.1 µM | – | Cc1cnc(NCC2CC2)nc1-c1c[nH]c(C(=O)NC(CO)c2ccccc2)c1 (stereo not shown) [III-a-159, 4-[2-(Cyclopropylmethyl-amino)-5-methyl-pyrimidin-4-yl]-1H-pyrrole-2-carboxylic acid (2-hydroxy-1-phenyl-ethyl)-amide] | –
12 | < 0.1 µM | – | < 0.1 µM | – | Cc1cnc(NCC2CCCO2)nc1-c1c[nH]c(C(=O)NC(CO)c2ccccc2)c1 (stereo not shown) [III-a-217, 4-{5-Methyl-2-((tetrahydro-furan-2-ylmethyl)-amino]-pyrimidin-4-yl}-1H-pyrrole-2-carboxylic acid (2-hydroxy-1-phenyl-ethyl)-amide] | –
13 | 0.1 to 1 µM | – | < 0.1 µM | – | CC(=O)Nc1ncc(C)c(-c2c[nH]c(C(=O)NC(CO)c3ccccc3)c2)n1 (stereo not shown) [III-a-213, 4-(2-Acetylamino-5-methyl-pyrimidin-4-yl)-1H-pyrrole-2-carboxylic acid (2-hydroxy-1-phenyl-ethyl)-amide] | –
14 | 0.1 to 1 µM | – | < 0.1 µM | – | Cc1cnc(NC(CO)c2ccccc2)nc1-c1c[nH]c(C(=O)NC(CO)c2cccc(C(F)(F)F)c2)c1 (stereo not shown) [III-a-201, 4-[2-(2-Hydroxy-1-phenyl-ethylamino)-5-methyl-pyrimidin-4-yl]-1H-pyrrole-2-carboxylic acid [2-hydroxy-1-(3-trifluoromethyl-phenyl)-ethyl)-amide] | –
15 | < 0.1 µM | 0.1 to 1 µM | < 0.1 µM | – | Cc1cnc(NC2(CO)CC2)nc1-c1c[nH]c(C(=O)NC(CO)c2ccccc2)c1 (stereo not shown) [III-a-174, 4-[2-(1-Hydroxymethyl-cyclopropylamino)-5-methyl-pyrimidin-4-yl]-1H-pyrrole-2-carboxylic acid (2-hydroxy-1-phenyl-ethyl)-amide] | –
16 | 0.1 to 1 µM | – | < 0.1 µM | – | Cc1cnc(NCC(C)O)nc1-c1c[nH]c(C(=O)NC(CO)c2ccccc2)c1 (stereo not shown) [III-a-177, 4-[2-(2-Hydroxy-propylamino)-5-methyl-pyrimidin-4-yl]-1H-pyrrole-2-carboxylic acid (2-hydroxy-1-phenyl-ethyl)-amide] | –
17 | > 1 µM | – | < 0.1 µM | – | CNc1ncc(C)c(-c2c[nH]c(C(=O)NC(CO)c3ccc(F)c(Cl)c3)c2)n1 (stereo not shown) [III-a-134, 4-(5-Methyl-2-methylamino-pyrimidin-4-yl)-1H-pyrrole-2-carboxylic acid [1-(3-chloro-4-fluoro-phenyl)-2-hydroxy-ethyl]-amide] | –

Row | SMILES | Ki (GSK-3β (AA 1–420)) | Ki (CDK-2/Cyclin A) | Ki (ERK2; [1]) | found to inhibit Aurora-2 (Aurora-2) | Ki (ERK2; ERK2 Inhibitory Activity (Ki class D-F))
18 | Cc1cnc(N[C@H](CO)c2ccccc2)nc1-c1c[nH]c(C(=O)N[C@H](CO)c2ccccc2)c1 [III-a-155, 4-[2-(2-Hydroxy-1-(S)-phenyl-ethylamino)-5-methyl-pyrimidin-4-yl]-1H-pyrrole-2-carboxylic acid (2-hydroxy-1-(S)-phenyl-ethyl)-amide] | 0.1 to 1 µM | 0.1 to 1 µM | < 0.1 µM | – | –
19 | Cc1cnc(NCc2ccccc2)nc1-c1c[nH]c(C(=O)NC(CO)c2ccccc2)c1 (stereo not shown) [III-a-150, 4-(2-Benzylamino-5-methyl-pyrimidin-4-yl)-1H-pyrrole-2-carboxylic acid (2-hydroxy-1-phenyl-ethyl)-amide] | 0.1 to 1 µM | 0.1 to 1 µM | < 0.1 µM | – | –
20 | Cc1cnc(NC(CO)c2ccccc2)nc1-c1c[nH]c(C(=O)NC(CO)c2ccccc2)c1 (stereo not shown) [III-a-166, 4-[2-(2-Hydroxy-1-phenyl-ethylamino)-5-methyl-pyrimidin-4-yl]-1H-pyrrole-2-carboxylic acid (2-hydroxy-1-phenyl-ethyl)-amide] | > 1 µM | – | – | – | 0.1 to 1 µM
